Laboratory results reported in patent US7981903B2, “2-[2-{phenylamino}-1H-pyrrolo[2,3-D]pyrimidin-4-yl)amino] benzamide derivatives as IGF-1R inhibitors for the treatment of cancer” (GlaxoSmithKline LLC, priority 2007, dated 2011).

Legend:
[1] = molecular target: T1, NIH-3T3 cells overexpressing human IR (Homo sapiens, UniProt P06213); test: IR cellular autophosphorylation (DELFIA); type: cell-based; settings: 2 h compound, insulin 3 ug/ml for 15 minutes, IC50 category
T1 construct: expressed in transfected cells; host or cells: NIH-3T3 (mouse fibroblasts)
Summary of the method: (§1)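 Receptor autophosphorylation measured by DELFIA, capturing IGF-1R or IRβ and detecting with europium anti-pTyr, reported as percent of IGF-1- or insulin-stimulated signal. Compounds (30 uM to 1.5 nM) added 2 h before ligand, then 15 min stimulation (IGF-1 30 ng/ml or insulin 3 ug/ml).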

[2] = molecular target: T2, NIH-3T3 cells overexpressing human IGF-1R (Homo sapiens, UniProt P08069); test: IGF-1R cellular autophosphorylation (DELFIA); type: cell-based
T2 construct: expressed in transfected cells; host or cells: NIH-3T3 (mouse fibroblasts)
Summary of the method: as §1

ALK = ALK (Homo sapiens, UniProt Q9UM73); test: ALK enzyme assay (HTRF); type: biochemical; settings: 0.25 nM ALK, 15.0 μM ATP, values given as pIC50 category
Summary of the method: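 Final compound range 0.00017 to 10 μM (twelve 1:3 dilutions). Kinase reaction with ATP and biotinylated synthetic peptide runs 120 min at 20° C, stopped with EDTA; phosphotyrosine detected by HTRF after 60 min. Inhibition referenced to DMSO (1%) and EDTA (0.1 M) controls, curve-fitted.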

T2 sequence (P08069 31-1367): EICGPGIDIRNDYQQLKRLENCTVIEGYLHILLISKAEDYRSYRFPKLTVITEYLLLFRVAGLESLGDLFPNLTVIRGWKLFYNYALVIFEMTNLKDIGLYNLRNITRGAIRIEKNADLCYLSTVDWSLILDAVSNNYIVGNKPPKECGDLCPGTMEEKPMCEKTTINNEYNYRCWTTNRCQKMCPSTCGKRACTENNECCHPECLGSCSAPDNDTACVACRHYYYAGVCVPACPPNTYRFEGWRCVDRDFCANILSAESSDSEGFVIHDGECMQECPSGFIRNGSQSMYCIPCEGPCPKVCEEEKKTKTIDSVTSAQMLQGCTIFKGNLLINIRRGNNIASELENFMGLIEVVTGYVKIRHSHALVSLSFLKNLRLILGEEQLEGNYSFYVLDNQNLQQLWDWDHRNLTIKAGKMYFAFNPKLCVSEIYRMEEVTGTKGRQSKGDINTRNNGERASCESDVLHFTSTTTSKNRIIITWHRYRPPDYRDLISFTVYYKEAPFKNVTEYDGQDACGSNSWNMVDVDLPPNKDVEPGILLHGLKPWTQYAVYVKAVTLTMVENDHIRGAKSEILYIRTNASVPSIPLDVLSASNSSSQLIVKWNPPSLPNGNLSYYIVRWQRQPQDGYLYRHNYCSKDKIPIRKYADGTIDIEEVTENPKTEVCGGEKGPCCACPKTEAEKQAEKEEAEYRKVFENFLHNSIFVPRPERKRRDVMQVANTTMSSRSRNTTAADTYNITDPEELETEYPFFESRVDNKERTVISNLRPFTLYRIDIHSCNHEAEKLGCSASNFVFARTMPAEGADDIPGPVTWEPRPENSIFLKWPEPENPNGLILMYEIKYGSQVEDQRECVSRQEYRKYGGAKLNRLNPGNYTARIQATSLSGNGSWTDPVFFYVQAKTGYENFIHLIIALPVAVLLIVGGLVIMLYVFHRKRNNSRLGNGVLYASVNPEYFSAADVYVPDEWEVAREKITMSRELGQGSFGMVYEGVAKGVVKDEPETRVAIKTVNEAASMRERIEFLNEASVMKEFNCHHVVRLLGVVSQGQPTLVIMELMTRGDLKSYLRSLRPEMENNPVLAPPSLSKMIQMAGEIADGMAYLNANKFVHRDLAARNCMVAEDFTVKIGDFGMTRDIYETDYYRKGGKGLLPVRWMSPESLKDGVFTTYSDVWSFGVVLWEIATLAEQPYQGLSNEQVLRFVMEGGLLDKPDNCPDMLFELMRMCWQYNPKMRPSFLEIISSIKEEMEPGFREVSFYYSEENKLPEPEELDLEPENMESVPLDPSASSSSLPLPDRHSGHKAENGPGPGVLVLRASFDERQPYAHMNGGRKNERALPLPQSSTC
T1 sequence (P06213 28-1382): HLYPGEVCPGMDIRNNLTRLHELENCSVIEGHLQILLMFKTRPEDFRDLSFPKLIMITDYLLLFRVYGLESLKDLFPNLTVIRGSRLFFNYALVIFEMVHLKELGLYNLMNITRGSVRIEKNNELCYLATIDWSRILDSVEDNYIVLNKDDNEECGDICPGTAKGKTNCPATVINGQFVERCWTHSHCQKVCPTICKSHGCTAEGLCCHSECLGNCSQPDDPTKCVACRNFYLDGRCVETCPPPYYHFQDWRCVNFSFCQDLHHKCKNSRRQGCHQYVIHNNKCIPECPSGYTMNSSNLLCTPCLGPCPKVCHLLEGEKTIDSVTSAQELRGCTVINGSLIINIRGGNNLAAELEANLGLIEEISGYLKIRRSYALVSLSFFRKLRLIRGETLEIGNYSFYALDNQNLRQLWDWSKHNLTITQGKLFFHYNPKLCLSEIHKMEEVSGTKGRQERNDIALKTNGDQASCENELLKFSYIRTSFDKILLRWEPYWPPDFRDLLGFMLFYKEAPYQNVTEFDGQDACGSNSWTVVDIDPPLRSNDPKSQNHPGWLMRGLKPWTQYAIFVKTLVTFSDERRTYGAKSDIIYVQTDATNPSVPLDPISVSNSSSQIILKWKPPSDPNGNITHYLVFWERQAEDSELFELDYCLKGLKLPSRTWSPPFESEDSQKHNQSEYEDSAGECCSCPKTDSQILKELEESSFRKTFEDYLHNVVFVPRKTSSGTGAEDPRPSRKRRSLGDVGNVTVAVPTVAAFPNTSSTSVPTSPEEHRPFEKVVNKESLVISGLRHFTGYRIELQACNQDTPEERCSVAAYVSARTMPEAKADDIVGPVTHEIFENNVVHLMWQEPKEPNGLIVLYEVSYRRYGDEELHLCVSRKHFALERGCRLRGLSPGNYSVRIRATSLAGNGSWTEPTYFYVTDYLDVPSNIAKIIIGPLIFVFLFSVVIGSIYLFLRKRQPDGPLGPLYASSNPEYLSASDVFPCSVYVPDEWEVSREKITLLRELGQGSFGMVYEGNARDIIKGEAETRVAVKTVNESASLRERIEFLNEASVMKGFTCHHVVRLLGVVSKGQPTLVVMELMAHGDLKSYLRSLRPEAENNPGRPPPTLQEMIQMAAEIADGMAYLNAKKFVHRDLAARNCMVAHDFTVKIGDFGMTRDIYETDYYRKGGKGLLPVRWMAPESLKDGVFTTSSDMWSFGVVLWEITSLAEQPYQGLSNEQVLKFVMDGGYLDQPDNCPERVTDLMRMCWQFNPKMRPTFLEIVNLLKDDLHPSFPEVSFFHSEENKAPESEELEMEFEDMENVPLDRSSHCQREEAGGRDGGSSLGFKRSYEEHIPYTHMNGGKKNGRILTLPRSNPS
Chain of ALK (Q9UM73 19-1620): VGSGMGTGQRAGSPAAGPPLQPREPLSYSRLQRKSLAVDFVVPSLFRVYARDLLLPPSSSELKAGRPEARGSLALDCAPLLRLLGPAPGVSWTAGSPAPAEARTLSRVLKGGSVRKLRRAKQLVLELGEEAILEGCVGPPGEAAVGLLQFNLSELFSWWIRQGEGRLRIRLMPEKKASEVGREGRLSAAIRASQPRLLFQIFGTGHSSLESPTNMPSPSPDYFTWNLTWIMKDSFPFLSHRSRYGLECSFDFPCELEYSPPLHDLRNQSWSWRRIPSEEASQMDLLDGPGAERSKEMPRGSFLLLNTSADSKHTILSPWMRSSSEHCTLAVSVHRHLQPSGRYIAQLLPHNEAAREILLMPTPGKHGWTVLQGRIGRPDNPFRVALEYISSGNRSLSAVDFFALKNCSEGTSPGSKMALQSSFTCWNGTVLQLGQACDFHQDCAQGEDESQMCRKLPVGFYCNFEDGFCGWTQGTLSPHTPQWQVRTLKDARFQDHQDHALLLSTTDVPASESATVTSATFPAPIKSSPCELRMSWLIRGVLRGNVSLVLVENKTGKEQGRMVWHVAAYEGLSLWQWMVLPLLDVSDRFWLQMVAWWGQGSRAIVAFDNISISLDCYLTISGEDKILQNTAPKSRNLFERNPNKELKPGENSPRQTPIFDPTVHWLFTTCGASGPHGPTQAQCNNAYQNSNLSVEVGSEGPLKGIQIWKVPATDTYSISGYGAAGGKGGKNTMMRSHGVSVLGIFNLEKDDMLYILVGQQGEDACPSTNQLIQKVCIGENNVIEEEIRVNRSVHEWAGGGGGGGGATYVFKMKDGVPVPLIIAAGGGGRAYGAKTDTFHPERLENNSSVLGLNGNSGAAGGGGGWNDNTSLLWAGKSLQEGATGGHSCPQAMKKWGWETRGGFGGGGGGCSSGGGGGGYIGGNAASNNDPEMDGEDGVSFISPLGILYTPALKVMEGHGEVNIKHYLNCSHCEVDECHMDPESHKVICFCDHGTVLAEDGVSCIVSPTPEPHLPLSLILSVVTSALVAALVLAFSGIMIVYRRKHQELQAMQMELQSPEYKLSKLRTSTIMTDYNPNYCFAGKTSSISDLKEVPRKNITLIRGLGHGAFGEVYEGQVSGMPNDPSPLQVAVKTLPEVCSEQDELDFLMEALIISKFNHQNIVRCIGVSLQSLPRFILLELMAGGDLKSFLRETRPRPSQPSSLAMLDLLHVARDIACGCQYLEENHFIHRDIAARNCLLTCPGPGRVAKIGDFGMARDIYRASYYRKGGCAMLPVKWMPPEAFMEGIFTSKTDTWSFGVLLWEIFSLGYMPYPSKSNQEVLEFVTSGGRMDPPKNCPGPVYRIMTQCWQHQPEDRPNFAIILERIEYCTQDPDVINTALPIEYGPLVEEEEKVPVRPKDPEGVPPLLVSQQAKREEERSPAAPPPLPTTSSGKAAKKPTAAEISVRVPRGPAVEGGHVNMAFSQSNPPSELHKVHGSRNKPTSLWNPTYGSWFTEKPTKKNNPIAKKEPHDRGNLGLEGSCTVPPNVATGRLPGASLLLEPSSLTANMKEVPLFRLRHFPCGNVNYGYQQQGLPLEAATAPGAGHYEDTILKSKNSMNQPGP

SMILES	IC50 [1]	IC50 [2]	IC50 (ALK)
COc1cc2c(cc1Nc1nc(Nc3cccc(F)c3C(N)=O)c3cc[nH]c3n1)NCC2 [Example 140, 2-fluoro-6-[(2-{[5-(methyloxy)-2,3-dihydro-1H-indol-6-yl]amino}-1H-pyrrolo[2,3-d]pyrimidin-4-yl)amino]benzamide]	> 500 nM	> 500 nM	5.01 to 200 nM
COc1cc2c(cc1Nc1nc(Nc3cccc(F)c3C(N)=O)c3cc[nH]c3n1)N(C(=O)CN1CCC1)CC2 [Example 143, 2-[(2-{[1-(1-azetidinylacetyl)-5-(methyloxy)-2,3-dihydro-1H-indol-6-yl]amino}-1H-pyrrolo[2,3-d]pyrimidin-4-yl)amino]-6-fluorobenzamide]	100 to 500 nM	100 to 500 nM	1.26 to 3.98 nM
COc1cc2c(cc1Nc1nc(Nc3cccc(F)c3C(N)=O)c3cc[nH]c3n1)N(C(=O)CN(C)OC)CC2 [Example 144, 2-fluoro-6-[(2-{[1-[N-methyl-N-(methyloxy)glycyl]-5-(methyloxy)-2,3-dihydro-1H-indol-6-yl]amino}-1H-pyrrolo[2,3-d]pyrimidin-4-yl)amino]benzamide]	> 500 nM	> 500 nM	5.01 to 200 nM
COc1cc2c(cc1Nc1nc(Nc3cccc(F)c3C(N)=O)c3cc[nH]c3n1)N(C(=O)N(C)C)CC2 [Example 146, 6-[(4-{[2-(aminocarbonyl)-3-fluorophenyl]amino}-1H-pyrrolo[2,3-d]pyrimidin-2-yl)amino]-N,N-dimethyl-5-(methyloxy)-2,3-dihydro-1H-indole-1-carboxamide]	> 500 nM	> 500 nM	5.01 to 200 nM
CNC(=O)c1c(F)cccc1Nc1nc(Nc2cc3c(cc2OC)CCN3C(=O)COC)nc2[nH]ccc12 [Example 150, 2-fluoro-N-methyl-6-{[2-({5-(methyloxy)-1-[(methyloxy)acetyl]-2,3-dihydro-1H-indol-6-yl}amino)-1H-pyrrolo[2,3-d]pyrimidin-4-yl]amino}benzamide]	> 500 nM	> 500 nM	5.01 to 200 nM
CCCNC(=O)c1c(F)cc(F)cc1Nc1nc(Nc2cc3c(cc2OC)CCN3C(=O)CN(C)C)nc2[nH]ccc12 [Example 152, 2-[(2-{[1-(N,N-dimethylglycyl)-5-(methyloxy)-2,3-dihydro-1H-indol-6-yl]amino}-1H-pyrrolo[2,3-d]pyrimidin-4-yl)amino]-4,6-difluoro-N-propylbenzamide]	100 to 500 nM	100 to 500 nM	0.251 to 1 nM
COc1cc2c(cc1Nc1nc(Nc3ccc(F)c(F)c3C(=O)NC(C)C)c3cc[nH]c3n1)N(C(=O)CN(C)C)CC2 [Example 161, 6-[(2-{[1-(N,N-dimethylglycyl)-5-(methyloxy)-2,3-dihydro-1H-indol-6-yl]amino}-1H-pyrrolo[2,3-d]pyrimidin-4-yl)amino]-2,3-difluoro-N-(1-methylethyl)benzamide]	> 500 nM	100 to 500 nM	1.26 to 3.98 nM
CCCN(C)CC(=O)N1CCc2cc(OC)c(Nc3nc(Nc4cccc(F)c4C(N)=O)c4cc[nH]c4n3)cc21 [Example 168, 2-fluoro-6-[(2-{[5-(methyloxy)-1-(N-methyl-N-propylglycyl)-2,3-dihydro-1H-indol-6-yl]amino}-1H-pyrrolo[2,3-d]pyrimidin-4-yl)amino]benzamide]	< 100 nM	< 100 nM	1.26 to 3.98 nM
COc1cc2c(cc1Nc1nc(Nc3cc(Cl)cc(F)c3C(N)=O)c3cc[nH]c3n1)N(C(=O)CN1CCCC1)CC2 [Example 175, 4-chloro-2-fluoro-6-[(2-{[5-(methyloxy)-1-(1-pyrrolidinylacetyl)-2,3-dihydro-1H-indol-6-yl]amino}-1H-pyrrolo[2,3-d]pyrimidin-4-yl)amino]benzamide]	< 100 nM	< 100 nM	1.26 to 3.98 nM
CNC(=O)c1c(F)cc(F)cc1Nc1nc(Nc2cc3c(cc2OC)CCCN3C(=O)CN(C)C)nc2[nH]ccc12 [Example 179, 2-[(2-{[1-(N,N-dimethylglycyl)-6-(methyloxy)-1,2,3,4-tetrahydro-7-quinolinyl]amino}-1H-pyrrolo[2,3-d]pyrimidin-4-yl)amino]-4,6-difluoro-N-methylbenzamide]	< 100 nM	< 100 nM	0.251 to 1 nM
CCNC(=O)c1c(F)cc(F)cc1Nc1nc(Nc2cc3c(cc2OC)CCCN3C(=O)CN(C)C)nc2[nH]ccc12 [Example 180, 2-[(2-{[1-(N,N-dimethylglycyl)-6-(methyloxy)-1,2,3,4-tetrahydro-7-quinolinyl]amino}-1H-pyrrolo[2,3-d]pyrimidin-4-yl)amino]-N-ethyl-4,6-difluorobenzamide]	< 100 nM	< 100 nM	0.251 to 1 nM
COc1cc2c(cc1Nc1nc(Nc3cccc(F)c3C(N)=O)c3cc[nH]c3n1)N(C(=O)CN1CCOCC1)CC2 [Example 185, 2-fluoro-6-[(2-{[5-(methyloxy)-1-(4-morpholinylacetyl)-2,3-dihydro-1H-indol-6-yl]amino}-1H-pyrrolo[2,3-d]pyrimidin-4-yl)amino]benzamide]	> 500 nM	< 100 nM	5.01 to 200 nM

Now from value to compound:

IC50 [1]	IC50 [2]	IC50 (ALK)	SMILES
< 100 nM	< 100 nM	5.01 to 200 nM	CCN(C)CC(=O)N1CCCc2cc(OC)c(Nc3nc(Nc4cccc(F)c4C(=O)NC)c4cc[nH]c4n3)cc21 [Example 132, 2-[(2{-[1-(N-ethyl-N-methylglycyl)-6-(methyloxy)-1,2,3,4-tetrahydro-7-quinolinyl]amino}-1H-pyrrolo[2,3-d]pyrimidin-4-yl)amino]-6-fluoro-N-methylbenzamide]
< 100 nM	100 to 500 nM	1.26 to 3.98 nM	COc1cc2c(cc1Nc1nc(Nc3cccc(F)c3C(N)=O)c3cc[nH]c3n1)N(C(C)=O)CC2 [Example 134, 2-[(2-{[1-acetyl-5-(methyloxy)-2,3-dihydro-1H-indol-6-yl]amino}-1H-pyrrolo[2,3-d]pyrimidin-4-yl)amino]-6-fluorobenzamide]
> 500 nM	> 500 nM	1.26 to 3.98 nM	CNC(=O)c1c(F)cccc1Nc1nc(Nc2cc3c(cc2OC)CCN3C(C)=O)nc2[nH]ccc12 [Example 135, 2-[(2-{[1-acetyl-5-(methyloxy)-2,3-dihydro-1H-indol-6-yl]amino}-1H-pyrrolo[2,3-d]pyrimidin-4-yl)amino]-6-fluoro-N-methylbenzamide]
100 to 500 nM	100 to 500 nM	5.01 to 200 nM	CCN(CC)CC(=O)N1CCc2cc(OC)c(Nc3nc(Nc4cccc(F)c4C(=O)NC)c4cc[nH]c4n3)cc21 [Example 137, 2-[(2-{[1-(N,N-diethylglycyl)-5-(methyloxy)-2,3-dihydro-1H-indol-6-yl]amino}-1H-pyrrolo[2,3-d]pyrimidin-4-yl)amino]-6-fluoro-N-methylbenzamide]
> 500 nM	> 500 nM	5.01 to 200 nM	COc1cc2c(cc1Nc1nc(Nc3cccc(F)c3C(N)=O)c3cc[nH]c3n1)N(C(=O)Cn1ccnc1)CC2 [Example 145, 2-fluoro-6-[(2-{[1-(1H-imidazol-1-ylacetyl)-5-(methyloxy)-2,3-dihydro-1H-indol-6-yl]amino}-1H-pyrrolo[2,3-d]pyrimidin-4-yl)amino]benzamide]
100 to 500 nM	100 to 500 nM	5.01 to 200 nM	COc1cc2c(cc1Nc1nc(Nc3cccc(F)c3C(N)=O)c3cc[nH]c3n1)N(C(=O)[C@@H]1CCCN1C)CC2 [Example 147, 2-fluoro-6-[(2-{[5-(methyloxy)-1-(1-methyl-L-prolyl)-2,3-dihydro-1H-indol-6-yl]amino}-1H-pyrrolo[2,3-d]pyrimidin-4-yl)amino]benzamide]
100 to 500 nM	100 to 500 nM	5.01 to 200 nM	COCC(=O)N1CCc2cc(OC)c(Nc3nc(Nc4cccc(F)c4C(N)=O)c4cc[nH]c4n3)cc21 [Example 149, 2-fluoro-6-{[2-({5-(methyloxy)-1-[(methyloxy)acetyl]-2,3-dihydro-1H-indol-6-yl}amino)-1H-pyrrolo[2,3-d]pyrimidin-4-yl]amino}benzamide]
100 to 500 nM	100 to 500 nM	0.251 to 1 nM	CCNC(=O)c1c(F)cc(F)cc1Nc1nc(Nc2cc3c(cc2OC)CCN3C(=O)CN(C)C)nc2[nH]ccc12 [Example 151, 2-[(2-{[1-(N,N-dimethylglycyl)-5-(methyloxy)-2,3-dihydro-1H-indol-6-yl]amino}-1H-pyrrolo[2,3-d]pyrimidin-4-yl)amino]-N-ethyl-4,6-difluorobenzamide]
100 to 500 nM	100 to 500 nM	1.26 to 3.98 nM	CCN(C)CC(=O)N1CCc2cc(OC)c(Nc3nc(Nc4cccc(F)c4C(=O)NC)c4cc[nH]c4n3)cc21 [Example 165, 2-[(2-{[1-(N-ethyl-N-methylglycyl)-5-(methyloxy)-2,3-dihydro-1H-indol-6-yl]amino}-1H-pyrrolo[2,3-d]pyrimidin-4-yl)amino]-6-fluoro-N-methylbenzamide]
< 100 nM	< 100 nM	0.251 to 1 nM	COc1cc2c(cc1Nc1nc(Nc3cc(F)cc(F)c3C(N)=O)c3cc[nH]c3n1)N(C(=O)CN(C)C)CCC2 [Example 178, 2-[(2-{[1-(N,N-dimethylglycyl)-6-(methyloxy)-1,2,3,4-tetrahydro-7-quinolinyl]amino}-1H-pyrrolo[2,3-d]pyrimidin-4-yl)amino]-4,6-difluorobenzamide]
> 500 nM	100 to 500 nM	5.01 to 200 nM	COc1cc2c(cc1Nc1nc(Nc3cccc(F)c3C(N)=O)c3cc[nH]c3n1)N(C(=O)CN1CCN(C(C)C)CC1)CC2 [Example 186, 2-fluoro-6-[(2-{[1-{[4-(1-methylethyl)-1-piperazinyl]acetyl}-5-(methyloxy)-2,3-dihydro-1H-indol-6-yl]amino}-1H-pyrrolo[2,3-d]pyrimidin-4-yl)amino]benzamide]
